Assay results as given in patent US20180284095A1, “BIOMARKERS ASSOCIATED WITH LSD1 INHIBITORS AND USES THEREOF” (Oryzon Genomics, S.A., priority 2015, published 2018).

How the values were obtained:
Format in all cases: in vivo, mouse
TUBB3 [1] = assay: Microarray gene expression in brain, spleen and liver of Hsd:Athymic Nude-Foxn1nu mice (Example 7), housekeeping gene
Protocol: (§1) Total RNA was extracted from samples using the RNeasy extraction kit (Qiagen). The quality and concentration of the RNA was analyzed using the Agilent 2100 bioanalyzer and NanoDrop™ ND-1000 (Thermo Scientific). Samples with RNA integrity number (RIN)<6.0 were discarded. Total RNA (0.5 μg) amplification and labelling with Cy3 or Cy5 was carried out using the Eberwein mRNA amplification procedure (Van Gelder et al, Proc Natl Acad Sci USA 1990, 87:1663-1667) employing the MessageAmp™ aRNA amplification kit from Ambion (Applied Biosystems) following the manufacturer's instructions with minor modifications. As hybridization controls, plant mRNAs were transcribed from a plasmid containing the Zea mays Xet (xyloglucan endo-transglycosylase) cDNA and from a plasmid containing the Zea mays Zmmyb42 cDNA, independently prepared Cy3 and Cy5 labelled aRNA from these two RNAs using the Eberwein mRNA amplification procedure (as disclosed in Cerdà et al, Gen Comp Endocrinol 2008, 156:470-481).
(§2) The Cy3- and Cy5-labelled cRNAs and spikes were combined and hybridized to the microarray described in Example 2.6 for 17 h at 60° C. using Agilent's gaskets G2534-60002, G2534A hybridization chambers and DNA Hybridization Oven G2545A, according to the manufacturer's instructions. More specifically, equal amounts of Cy3 and Cy5 labeled Xet aRNA as well as equal amounts of Cy3 and Cy5 labeled Zmmyb42 aRNA were spiked into each mixture hybridized to the array. Arrays were washed and raw data were obtained using Agilent's DNA Microarray Scanner G2505B and Feature Extraction software (v10.1). The raw fluorescence intensity data were processed using applicant's proprietary software, and consists in the following operations:
(§3) Data normalization was carried out by an improved version of the nonlinear Q-splines normalization method (Workman et al., Genome Biol 2002, 3(9):research0048.1-0048.16). Normalization results were presented graphically as MA plots, as first described by Dudoit et al (Dudoit et al, Statistica Sinica, 2002, 12:111-139). Each point corresponds to a probe of the DNA array. M values (vertical axis) are the log-differential expression ratios. A values (horizontal axis) are the log-intensities of the spots. M and A are calculated from the Cy5 and Cy3 intensity values as of each spot. The DNA Array data is normalized using an improved version of non-linear Q-Splines normalization described by Workman et al., Genome Biol 2002, 3(9):research0048.1-0048.16. This process is useful to correct the deviation of the M values from the statistical assumption that most of the spots have M=0 in MA plots. The method allows the adjustment of all M values to form a cloud centered at M=0 in all intensity ranges. The data used to calculate the normalization fitting curve is the totality of the raw measurement dataset, excluding the signals for the probes for the spiked-in plant RNA controls and negative controls. In order to be able to normalize properly the data among all the experiments, the probe-set must include an important group of genes that should have no change (M=0) in the experiment. The normalization function is then applied to all the data, including controls.
(§4) Normalized and log-transformed data were used to calculate log 2 (sample/control) and Fold Change (FC) values. No background subtraction was applied to the signal intensity values during data processing, permitting robust selection of differentially expressed genes with low expression levels at the cost of potential sub-estimation of change when intensity levels are close to the array background level.
Powered Compound 3, 4 or 5 was dissolved in a 20% solution of 2-hydroxypropyl-R-cyclodextrin in water at the appropriate concentrations, vortexed and placed in an ultrasonic bath for 5 minutes.
Hsd:Athymic Nude-Foxn1nu mice were maintained in air- and temperature-controlled cages with regular supply of water and food. A maximum of 6 mice/cage were raised. […]

TUBB2C = assay: Microarray gene expression, brain of Hsd:ICR (CD1) mice, MTD study (Example 6), housekeeping gene; conditions: brain day 5, male CD1 mice pool
Protocol: as §1, §2
as §3, with “[…].” for “The method allows the adjustment of all M values to form a cloud centered at M=0 in all intensity ranges.”
as §4
(§5) Male Hsd:ICR (CD1®) mice were maintained in air- and temperature-controlled cages with regular supply of water and food. A maximum of 3 mice were raised per cage. Three mice were assigned to each group. Before the first administration, each mouse was labeled and weighed. Test compounds were administered orally using 1 ml syringes using animal feeding needles proper for mice at 10 ml/kg as follows. […]

TUBB3 [2] = assay: as above; conditions: brain day 5, male CD1 mice pool
Protocol: as §1, §2
as §3, with “[…].” for “The method allows the adjustment of all M values to form a cloud centered at M=0 in all intensity ranges.”
as §4, §5

[3] = 3 mg/kg oral x5 days vs vehicle
[4] = 10 mg/kg oral x5 days vs vehicle
[5] = 30 mg/kg oral x5 days vs vehicle
[6] = 100 mg/kg oral x5 days vs vehicle

NC(=O)CN[C@H]1C[C@@H]1c1ccc(OCc2ccccc2)cc1 (racemic) [Compound 3, 2-(((trans)-2-(4-(benzyloxy)phenyl)cyclopropyl)amino)acetamide]
Hybridization signal sample_Cy5 (TUBB3 [1]; BRAIN, TUBB3, 5 mg/kg): 2574.04 | log2 (sample/control) (TUBB3 [1]; BRAIN, TUBB3, 5 mg/kg vs VEH): −0.223 | Hybridization signal sample_Cy5 (TUBB3 [1]; BRAIN, TUBB3, 10 mg/kg): 3248.86 | log2 (sample/control) (TUBB3 [1]; BRAIN, TUBB3, 10 mg/kg vs VEH): −0.06283 | Hybridization signal sample_Cy5 (TUBB3 [1]; BRAIN, TUBB3, 20 mg/kg): 3078.53 | log2 (sample/control) (TUBB3 [1]; BRAIN, TUBB3, 20 mg/kg vs VEH): −0.0238 | Hybridization signal sample_Cy5 (TUBB3 [1]; BRAIN, TUBB3, 40 mg/kg): 3573.76 | log2 (sample/control) (TUBB3 [1]; BRAIN, TUBB3, 40 mg/kg vs VEH): 0.02054 | Hybridization signal sample_Cy5 (TUBB3 [1]; LIVER, TUBB3, 5 mg/kg): 64.7691 | log2 (sample/control) (TUBB3 [1]; LIVER, TUBB3, 5 mg/kg vs VEH): −0.09742 | Hybridization signal sample_Cy5 (TUBB3 [1]; LIVER, TUBB3, 10 mg/kg): 68.7068 | log2 (sample/control) (TUBB3 [1]; LIVER, TUBB3, 10 mg/kg vs VEH): 0.02345 | Hybridization signal sample_Cy5 (TUBB3 [1]; LIVER, TUBB3, 20 mg/kg): 48.4567 | log2 (sample/control) (TUBB3 [1]; LIVER, TUBB3, 20 mg/kg vs VEH): −0.04225 | Hybridization signal sample_Cy5 (TUBB3 [1]; LIVER, TUBB3, 40 mg/kg): 46.9101 | log2 (sample/control) (TUBB3 [1]; LIVER, TUBB3, 40 mg/kg vs VEH): 0.01927 | Hybridization signal sample_Cy5 (TUBB3 [1]; SPLEEN, TUBB3, 5 mg/kg): 58.6845 | log2 (sample/control) (TUBB3 [1]; SPLEEN, TUBB3, 5 mg/kg vs VEH): −0.02944 | Hybridization signal sample_Cy5 (TUBB3 [1]; SPLEEN, TUBB3, 10 mg/kg): 52.6685 | log2 (sample/control) (TUBB3 [1]; SPLEEN, TUBB3, 10 mg/kg vs VEH): −0.02259 | Hybridization signal sample_Cy5 (TUBB3 [1]; SPLEEN, TUBB3, 20 mg/kg): 62.5361 | log2 (sample/control) (TUBB3 [1]; SPLEEN, TUBB3, 20 mg/kg vs VEH): −0.1183 | Hybridization signal sample_Cy5 (TUBB3 [1]; SPLEEN, TUBB3, 40 mg/kg): 88.3418 | log2 (sample/control) (TUBB3 [1]; SPLEEN, TUBB3, 40 mg/kg vs VEH): 0.169

CN1CCN(C(=O)CN[C@H]2C[C@@H]2c2ccc(OCc3ccccc3)cc2)CC1 (racemic) [Compound 4, 2-(((trans)-2-(4-(benzyloxy)phenyl)cyclopropyl)amino)-1-(4-methylpiperazin-1-yl)ethan-1-one]
Hybridization signal sample_Cy5 (TUBB3 [1]; BRAIN, TUBB3, 1 mg/kg): 4992.04 | log2 (sample/control) (TUBB3 [1]; BRAIN, TUBB3, 1 mg/kg vs VEH): −0.03825 | Hybridization signal sample_Cy5 (TUBB3 [1]; BRAIN, TUBB3, 3 mg/kg): 5129.04 | log2 (sample/control) (TUBB3 [1]; BRAIN, TUBB3, 3 mg/kg vs VEH): 0.07852 | Hybridization signal sample_Cy5 (TUBB3 [1]; BRAIN, TUBB3, 10 mg/kg): 5941.88 | log2 (sample/control) (TUBB3 [1]; BRAIN, TUBB3, 10 mg/kg vs VEH): −0.1778 | Hybridization signal sample_Cy5 (TUBB3 [1]; LIVER, TUBB3, 1 mg/kg): 91.4818 | log2 (sample/control) (TUBB3 [1]; LIVER, TUBB3, 1 mg/kg vs VEH): −0.409 | Hybridization signal sample_Cy5 (TUBB3 [1]; LIVER, TUBB3, 3 mg/kg): 66.7291 | log2 (sample/control) (TUBB3 [1]; LIVER, TUBB3, 3 mg/kg vs VEH): −0.2432 | Hybridization signal sample_Cy5 (TUBB3 [1]; LIVER, TUBB3, 10 mg/kg): 103.99 | log2 (sample/control) (TUBB3 [1]; LIVER, TUBB3, 10 mg/kg vs VEH): 0.6811 | Hybridization signal sample_Cy5 (TUBB3 [1]; SPLEEN, TUBB3, 1 mg/kg): 76.0246 | log2 (sample/control) (TUBB3 [1]; SPLEEN, TUBB3, 1 mg/kg vs VEH): 0.2314 | Hybridization signal sample_Cy5 (TUBB3 [1]; SPLEEN, TUBB3, 3 mg/kg): 114.188 | log2 (sample/control) (TUBB3 [1]; SPLEEN, TUBB3, 3 mg/kg vs VEH): 0.3352 | Hybridization signal sample_Cy5 (TUBB3 [1]; SPLEEN, TUBB3, 10 mg/kg): 154.437 | log2 (sample/control) (TUBB3 [1]; SPLEEN, TUBB3, 10 mg/kg vs VEH): 0.9169

N[C@H]1CCN(CCN[C@H]2C[C@@H]2c2ccc(-c3cccc(C(F)(F)F)c3)cc2)C1 (racemic) [Compound 5, (S)-1-(2-(((trans)-2-(3′-(trifluoromethyl)-[1,1′-biphenyl]-4-yl)cyclopropyl)amino)ethyl)pyrrolidin-3-amine]
Hybridization signal sample_Cy5 (TUBB3 [1]; BRAIN, TUBB3, 3.3 mg/kg): 4740.83 | log2 (sample/control) (TUBB3 [1]; BRAIN, TUBB3, 3.3 mg/kg vs VEH): −0.05126 | Hybridization signal sample_Cy5 (TUBB3 [1]; BRAIN, TUBB3, 11 mg/kg): 6217.25 | log2 (sample/control) (TUBB3 [1]; BRAIN, TUBB3, 11 mg/kg vs VEH): −0.02834 | Hybridization signal sample_Cy5 (TUBB3 [1]; BRAIN, TUBB3, 33 mg/kg): 5722.06 | log2 (sample/control) (TUBB3 [1]; BRAIN, TUBB3, 33 mg/kg vs VEH): 0.1073 | Hybridization signal sample_Cy5 (TUBB3 [1]; LIVER, TUBB3, 3.3 mg/kg): 49.0459 | log2 (sample/control) (TUBB3 [1]; LIVER, TUBB3, 3.3 mg/kg vs VEH): −0.4483 | Hybridization signal sample_Cy5 (TUBB3 [1]; LIVER, TUBB3, 11 mg/kg): 43.197 | log2 (sample/control) (TUBB3 [1]; LIVER, TUBB3, 11 mg/kg vs VEH): −0.6411 | Hybridization signal sample_Cy5 (TUBB3 [1]; LIVER, TUBB3, 33 mg/kg): 52.03 | log2 (sample/control) (TUBB3 [1]; LIVER, TUBB3, 33 mg/kg vs VEH): −0.4211 | Hybridization signal sample_Cy5 (TUBB3 [1]; SPLEEN, TUBB3, 3.3 mg/kg): 88.3418 | log2 (sample/control) (TUBB3 [1]; SPLEEN, TUBB3, 3.3 mg/kg vs VEH): 0.169 | Hybridization signal sample_Cy5 (TUBB3 [1]; SPLEEN, TUBB3, 11 mg/kg): 229.738 | log2 (sample/control) (TUBB3 [1]; SPLEEN, TUBB3, 11 mg/kg vs VEH): 1.521 | Hybridization signal sample_Cy5 (TUBB3 [1]; SPLEEN, TUBB3, 33 mg/kg): 167.826 | log2 (sample/control) (TUBB3 [1]; SPLEEN, TUBB3, 33 mg/kg vs VEH): 1.398

(+) 5-((((trans)-2-(4-(benzyloxy)phenyl)cyclopropyl)amino)methyl)-1,3,4-oxadiazol-2-amine [Compound 2]
Hybridization signal sample_Cy5 TUBB2C (TUBB2C; 3 mg/kg oral x5 days): 5746.61 | log2 (sample/control) TUBB2C (TUBB2C; [3]): 0.1908 | Hybridization signal sample_Cy5 TUBB2C (TUBB2C; 10 mg/kg oral x5 days): 5742.06 | log2 (sample/control) TUBB2C (TUBB2C; [4]): 0.1179 | Hybridization signal sample_Cy5 TUBB2C (TUBB2C; 30 mg/kg oral x5 days): 6326.04 | log2 (sample/control) TUBB2C (TUBB2C; [5]): 0.1798 | Hybridization signal sample_Cy5 TUBB2C (TUBB2C; 100 mg/kg oral x5 days): 3724.28 | log2 (sample/control) TUBB2C (TUBB2C; [6]): −0.3983 | Hybridization signal sample_Cy5 TUBB3 (TUBB3 [2]; 3 mg/kg oral x5 days): 3650.69 | log2 (sample/control) TUBB3 (TUBB3 [2]; [3]): 0.09458 | Hybridization signal sample_Cy5 TUBB3 (TUBB3 [2]; 10 mg/kg oral x5 days): 3706.64 | log2 (sample/control) TUBB3 (TUBB3 [2]; [4]): −0.1239 | Hybridization signal sample_Cy5 TUBB3 (TUBB3 [2]; 30 mg/kg oral x5 days): 4409.6 | log2 (sample/control) TUBB3 (TUBB3 [2]; [5]): −0.002033 | Hybridization signal sample_Cy5 TUBB3 (TUBB3 [2]; 100 mg/kg oral x5 days): 2253.74 | log2 (sample/control) TUBB3 (TUBB3 [2]; [6]): −0.4338
